These are literature values, as cited in patent US7524883B2, “Eponemycin and epoxomicin analogs and uses thereof” (Eisai R&D Management Co., Ltd., priority 2002, dated 2009).

The data set concerns 20S proteasome.

As to `C=C(C)C[C@H](NC(=O)[C@H](CO)NC(=O)CCCCC(C)C)C(=O)[C@@]1(CO)CO1` [Eponemycin], the “binding to the 20S proteasome” value was “bind covalently and irreversibly”.
As for `CC[C@H](C)[C@H](NC(=O)[C@H]([C@@H](C)CC)N(C)C(C)=O)C(=O)N[C@H](C(=O)N[C@@H](CC(C)C)C(=O)[C@@]1(C)CO1)[C@@H](C)O` [Epoxomicin], the “binding to the 20S proteasome” value is “bind covalently and irreversibly”.
